One assay concerns Streptococcus. Kind of assay: Group A Streptococcus viability loss, dose response, counter-screen for streptokinase expression inhibitor project, luminescence, BacTiterGlo (AID 1915).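 Also: potency for reduction of bacterial viability or growth.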 The class given is functional, organism-based.
Assay [1] in a line: THP-1 cell cytotoxicity, dose response, cytotoxicity control for non-replicating M. tuberculosis project (AID 489025). The class given is functional.
In assay [2] the target is 5'-AMP-activated protein kinase catalytic subunit alpha-1 (Homo sapiens, UniProt Q13131). Type of assay: functional.
Chain of 5'-AMP-activated protein kinase catalytic subunit alpha-1 (Q13131 whole entry): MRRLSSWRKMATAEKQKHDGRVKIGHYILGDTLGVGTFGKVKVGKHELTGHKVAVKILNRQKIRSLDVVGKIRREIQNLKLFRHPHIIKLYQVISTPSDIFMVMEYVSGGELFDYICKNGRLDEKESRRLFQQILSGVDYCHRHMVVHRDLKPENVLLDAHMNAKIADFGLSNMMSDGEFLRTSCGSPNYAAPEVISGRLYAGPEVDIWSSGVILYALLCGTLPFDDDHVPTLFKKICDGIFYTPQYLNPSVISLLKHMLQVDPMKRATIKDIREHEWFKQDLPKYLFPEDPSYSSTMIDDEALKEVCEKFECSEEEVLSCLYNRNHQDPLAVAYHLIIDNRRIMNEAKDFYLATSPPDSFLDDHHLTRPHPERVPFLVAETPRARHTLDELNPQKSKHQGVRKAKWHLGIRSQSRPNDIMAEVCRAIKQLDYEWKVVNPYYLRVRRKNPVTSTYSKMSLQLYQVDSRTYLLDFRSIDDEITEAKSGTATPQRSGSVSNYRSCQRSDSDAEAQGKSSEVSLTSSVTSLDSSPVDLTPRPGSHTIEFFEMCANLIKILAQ
For assay [3], the target named is ALK tyrosine kinase receptor (Homo sapiens, UniProt Q9UM73). Type of assay: functional.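 Also: ALK tested as one member of a kinase panel screen.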
Chain of ALK tyrosine kinase receptor (Q9UM73 whole entry): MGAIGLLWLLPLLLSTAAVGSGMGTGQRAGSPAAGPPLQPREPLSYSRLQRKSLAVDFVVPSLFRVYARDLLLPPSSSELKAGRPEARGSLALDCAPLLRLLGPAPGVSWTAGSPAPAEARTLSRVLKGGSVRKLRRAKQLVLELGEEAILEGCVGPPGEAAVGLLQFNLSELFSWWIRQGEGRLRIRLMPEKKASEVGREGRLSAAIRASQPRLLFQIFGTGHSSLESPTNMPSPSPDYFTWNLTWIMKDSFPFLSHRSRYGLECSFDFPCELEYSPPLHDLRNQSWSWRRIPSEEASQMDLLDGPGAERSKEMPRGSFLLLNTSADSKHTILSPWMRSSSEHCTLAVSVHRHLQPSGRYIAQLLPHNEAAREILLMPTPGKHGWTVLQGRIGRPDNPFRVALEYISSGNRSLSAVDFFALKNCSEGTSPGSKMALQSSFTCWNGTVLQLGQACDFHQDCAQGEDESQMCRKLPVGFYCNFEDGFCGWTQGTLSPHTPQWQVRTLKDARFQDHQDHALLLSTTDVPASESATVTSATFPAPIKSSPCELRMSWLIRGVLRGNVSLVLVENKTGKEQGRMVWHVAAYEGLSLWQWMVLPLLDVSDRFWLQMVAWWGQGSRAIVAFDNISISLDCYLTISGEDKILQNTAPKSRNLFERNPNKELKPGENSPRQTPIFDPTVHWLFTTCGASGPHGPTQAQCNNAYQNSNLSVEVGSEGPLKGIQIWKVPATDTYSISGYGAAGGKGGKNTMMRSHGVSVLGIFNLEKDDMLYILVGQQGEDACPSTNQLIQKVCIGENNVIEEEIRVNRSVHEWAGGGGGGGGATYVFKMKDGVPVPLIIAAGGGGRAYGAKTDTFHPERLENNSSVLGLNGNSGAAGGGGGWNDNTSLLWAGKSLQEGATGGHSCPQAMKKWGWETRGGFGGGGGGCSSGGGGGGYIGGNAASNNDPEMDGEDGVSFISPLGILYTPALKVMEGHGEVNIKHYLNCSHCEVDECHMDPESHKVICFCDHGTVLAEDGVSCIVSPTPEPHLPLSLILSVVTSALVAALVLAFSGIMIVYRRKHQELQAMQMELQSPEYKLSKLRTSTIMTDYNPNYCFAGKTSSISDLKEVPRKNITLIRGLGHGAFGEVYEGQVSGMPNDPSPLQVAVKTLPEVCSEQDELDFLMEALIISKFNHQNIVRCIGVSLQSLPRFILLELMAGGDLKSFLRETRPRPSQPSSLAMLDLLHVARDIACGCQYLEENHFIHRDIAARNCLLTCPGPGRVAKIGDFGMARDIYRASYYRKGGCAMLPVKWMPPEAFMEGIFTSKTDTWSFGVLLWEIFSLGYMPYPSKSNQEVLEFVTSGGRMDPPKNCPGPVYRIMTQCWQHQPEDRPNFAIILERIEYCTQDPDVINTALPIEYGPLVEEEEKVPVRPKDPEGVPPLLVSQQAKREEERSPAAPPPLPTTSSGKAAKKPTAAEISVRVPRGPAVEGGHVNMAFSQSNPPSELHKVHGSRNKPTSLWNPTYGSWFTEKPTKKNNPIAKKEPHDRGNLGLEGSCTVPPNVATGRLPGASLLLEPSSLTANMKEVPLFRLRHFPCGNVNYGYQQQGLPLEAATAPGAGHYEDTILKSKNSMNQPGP
Assay [4] addresses Proto-oncogene tyrosine-protein kinase receptor Ret (Homo sapiens, UniProt P07949). The class given is functional.
The target of assay [5] is Tyrosine-protein kinase receptor TYRO3 (Homo sapiens, UniProt Q06418). The class given is functional.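 Also: TYRO3 value obtained as one member of a kinome-wide profiling panel.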
For assay [6], the target named is Mitogen-activated protein kinase 8 (Homo sapiens, UniProt P45983). The class given is functional.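 Also: value comes from one member of a kinome-wide kinase profiling panel.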
Chain of Mitogen-activated protein kinase 8 (P45983 whole entry): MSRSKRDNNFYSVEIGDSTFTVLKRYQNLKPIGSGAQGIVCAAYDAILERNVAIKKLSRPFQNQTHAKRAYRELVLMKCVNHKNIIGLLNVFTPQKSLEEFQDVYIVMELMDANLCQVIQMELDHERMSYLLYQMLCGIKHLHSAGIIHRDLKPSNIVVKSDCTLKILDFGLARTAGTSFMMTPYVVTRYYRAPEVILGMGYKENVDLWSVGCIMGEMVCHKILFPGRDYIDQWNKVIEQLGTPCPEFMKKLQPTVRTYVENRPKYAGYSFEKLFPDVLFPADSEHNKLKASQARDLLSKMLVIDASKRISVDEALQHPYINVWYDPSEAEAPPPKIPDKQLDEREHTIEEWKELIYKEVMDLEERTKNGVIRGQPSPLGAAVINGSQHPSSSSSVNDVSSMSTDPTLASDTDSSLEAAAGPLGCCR
A further assay has as its target Aurora kinase A (Homo sapiens, UniProt O14965). Type of assay: functional.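 Also: value from the Navigating the Kinome kinase panel profiling, panel entry STK6.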
Assay [7] addresses Tyrosine-protein kinase BTK (Homo sapiens, UniProt Q06187). The class given is functional.
The target in assay [8] is T1, Mitogen-activated protein kinase kinase kinase kinase 2 (Homo sapiens, UniProt Q12851).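 Also: measured as one member of a kinome-wide kinase panel, with MAP4K2 as the panel entry.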
T1 sequence (Q12851 whole entry): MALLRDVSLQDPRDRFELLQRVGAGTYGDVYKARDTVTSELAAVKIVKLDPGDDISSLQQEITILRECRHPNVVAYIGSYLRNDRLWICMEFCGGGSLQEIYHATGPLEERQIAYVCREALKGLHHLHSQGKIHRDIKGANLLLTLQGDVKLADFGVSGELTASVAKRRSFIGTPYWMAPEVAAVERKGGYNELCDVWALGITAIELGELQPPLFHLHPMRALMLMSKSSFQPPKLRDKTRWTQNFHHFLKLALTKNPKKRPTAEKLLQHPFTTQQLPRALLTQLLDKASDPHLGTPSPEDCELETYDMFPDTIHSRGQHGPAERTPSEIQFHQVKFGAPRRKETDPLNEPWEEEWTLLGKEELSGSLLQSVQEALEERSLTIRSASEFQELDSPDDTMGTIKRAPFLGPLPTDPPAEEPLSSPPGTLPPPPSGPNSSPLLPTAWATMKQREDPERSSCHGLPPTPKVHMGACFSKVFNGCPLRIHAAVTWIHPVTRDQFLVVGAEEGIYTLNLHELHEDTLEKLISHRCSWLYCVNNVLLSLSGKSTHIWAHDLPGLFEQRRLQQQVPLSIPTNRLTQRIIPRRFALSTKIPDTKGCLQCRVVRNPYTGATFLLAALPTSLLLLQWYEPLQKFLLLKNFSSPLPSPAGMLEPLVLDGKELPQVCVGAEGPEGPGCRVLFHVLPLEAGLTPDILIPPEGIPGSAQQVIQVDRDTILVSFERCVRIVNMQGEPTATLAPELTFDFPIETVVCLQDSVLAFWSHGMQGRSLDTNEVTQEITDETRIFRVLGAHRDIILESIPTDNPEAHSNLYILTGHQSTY
Type of assay: functional.

The next assay concerns the target Activated CDC42 kinase 1 (Homo sapiens, UniProt Q07912). Briefly: Navigating the Kinome. Panel member name: ACK1. Type of assay: functional.
Assay [9] has as its target T2, Receptor-type tyrosine-protein kinase FLT3 (Homo sapiens, UniProt P36888).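 Also: FLT3 was tested as one member of a kinome-wide kinase panel.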
T2 sequence (P36888 whole entry): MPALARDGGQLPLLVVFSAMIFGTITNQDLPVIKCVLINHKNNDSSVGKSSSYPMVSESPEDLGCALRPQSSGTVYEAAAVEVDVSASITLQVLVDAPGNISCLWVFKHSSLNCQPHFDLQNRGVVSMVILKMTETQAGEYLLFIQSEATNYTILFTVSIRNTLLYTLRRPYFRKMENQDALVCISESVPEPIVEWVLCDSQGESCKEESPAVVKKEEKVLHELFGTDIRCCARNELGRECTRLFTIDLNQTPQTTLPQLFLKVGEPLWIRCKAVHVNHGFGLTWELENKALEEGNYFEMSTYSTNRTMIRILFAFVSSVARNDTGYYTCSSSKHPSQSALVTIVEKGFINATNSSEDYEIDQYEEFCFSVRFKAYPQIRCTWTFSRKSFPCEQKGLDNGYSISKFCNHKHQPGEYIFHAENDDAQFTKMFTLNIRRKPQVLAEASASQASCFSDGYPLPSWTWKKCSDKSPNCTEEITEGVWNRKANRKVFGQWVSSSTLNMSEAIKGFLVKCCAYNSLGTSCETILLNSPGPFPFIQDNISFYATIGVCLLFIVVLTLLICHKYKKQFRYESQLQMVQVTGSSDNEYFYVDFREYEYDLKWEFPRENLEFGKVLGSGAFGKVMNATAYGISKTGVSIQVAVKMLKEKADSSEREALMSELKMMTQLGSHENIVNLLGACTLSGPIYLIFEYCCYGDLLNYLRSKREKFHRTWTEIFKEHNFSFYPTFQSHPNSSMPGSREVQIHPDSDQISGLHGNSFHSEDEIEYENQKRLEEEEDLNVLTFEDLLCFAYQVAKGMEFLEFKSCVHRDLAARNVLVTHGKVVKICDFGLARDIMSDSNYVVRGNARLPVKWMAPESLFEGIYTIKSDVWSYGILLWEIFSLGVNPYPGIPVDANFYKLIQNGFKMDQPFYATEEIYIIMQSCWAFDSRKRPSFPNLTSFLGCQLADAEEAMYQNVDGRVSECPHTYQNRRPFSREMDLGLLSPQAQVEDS
Type of assay: functional.

Assay [10] addresses Tyrosine-protein kinase ABL1 (Homo sapiens, UniProt P00519). The class given is functional.
The next assay concerns the target Aurora kinase B (Homo sapiens, UniProt Q96GD4). The class given is functional.
Assay [11] concerns the target Tyrosine-protein kinase Fyn (Homo sapiens, UniProt P06241). The class given is functional.
In assay [12] the target is Cyclin-dependent kinase 7 (Homo sapiens, UniProt P50613). The class given is functional.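 Also: value comes from a kinome-wide kinase profiling panel in which CDK7 is one member.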
In assay [13] the target is BDNF/NT-3 growth factors receptor (Homo sapiens, UniProt Q16620). The class given is functional.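 Also: NTRK2 measured as one member of a broad kinome-wide kinase profiling panel.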
Chain of BDNF/NT-3 growth factors receptor (Q16620 whole entry): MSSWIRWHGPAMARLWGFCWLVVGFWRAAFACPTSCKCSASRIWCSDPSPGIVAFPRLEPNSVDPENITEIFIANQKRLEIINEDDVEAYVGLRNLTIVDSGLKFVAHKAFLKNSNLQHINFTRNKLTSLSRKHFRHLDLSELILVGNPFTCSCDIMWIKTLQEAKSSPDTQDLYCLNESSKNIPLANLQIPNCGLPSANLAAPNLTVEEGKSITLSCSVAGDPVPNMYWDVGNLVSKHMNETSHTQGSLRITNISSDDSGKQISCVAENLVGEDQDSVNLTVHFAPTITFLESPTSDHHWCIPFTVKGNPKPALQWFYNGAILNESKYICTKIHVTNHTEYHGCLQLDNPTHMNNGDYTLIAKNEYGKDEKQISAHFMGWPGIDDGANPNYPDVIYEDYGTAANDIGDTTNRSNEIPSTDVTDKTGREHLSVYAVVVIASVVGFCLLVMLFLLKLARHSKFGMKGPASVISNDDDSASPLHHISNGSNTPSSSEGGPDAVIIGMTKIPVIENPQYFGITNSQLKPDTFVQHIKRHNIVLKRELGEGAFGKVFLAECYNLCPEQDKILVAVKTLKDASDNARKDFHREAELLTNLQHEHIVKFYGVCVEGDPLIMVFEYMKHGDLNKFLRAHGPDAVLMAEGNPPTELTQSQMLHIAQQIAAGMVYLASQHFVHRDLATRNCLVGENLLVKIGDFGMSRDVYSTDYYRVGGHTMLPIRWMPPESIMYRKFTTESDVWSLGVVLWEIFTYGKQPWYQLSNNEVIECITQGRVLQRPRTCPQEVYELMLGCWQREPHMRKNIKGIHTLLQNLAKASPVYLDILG
In assay [14] the target is Dual specificity protein kinase CLK4 (Homo sapiens, UniProt Q9HAZ1). Type of assay: functional.
Assay [15] deals with Mitogen-activated protein kinase kinase kinase kinase 4 (Homo sapiens, UniProt O95819). Type of assay: functional.
Chain of Mitogen-activated protein kinase kinase kinase kinase 4 (O95819 whole entry): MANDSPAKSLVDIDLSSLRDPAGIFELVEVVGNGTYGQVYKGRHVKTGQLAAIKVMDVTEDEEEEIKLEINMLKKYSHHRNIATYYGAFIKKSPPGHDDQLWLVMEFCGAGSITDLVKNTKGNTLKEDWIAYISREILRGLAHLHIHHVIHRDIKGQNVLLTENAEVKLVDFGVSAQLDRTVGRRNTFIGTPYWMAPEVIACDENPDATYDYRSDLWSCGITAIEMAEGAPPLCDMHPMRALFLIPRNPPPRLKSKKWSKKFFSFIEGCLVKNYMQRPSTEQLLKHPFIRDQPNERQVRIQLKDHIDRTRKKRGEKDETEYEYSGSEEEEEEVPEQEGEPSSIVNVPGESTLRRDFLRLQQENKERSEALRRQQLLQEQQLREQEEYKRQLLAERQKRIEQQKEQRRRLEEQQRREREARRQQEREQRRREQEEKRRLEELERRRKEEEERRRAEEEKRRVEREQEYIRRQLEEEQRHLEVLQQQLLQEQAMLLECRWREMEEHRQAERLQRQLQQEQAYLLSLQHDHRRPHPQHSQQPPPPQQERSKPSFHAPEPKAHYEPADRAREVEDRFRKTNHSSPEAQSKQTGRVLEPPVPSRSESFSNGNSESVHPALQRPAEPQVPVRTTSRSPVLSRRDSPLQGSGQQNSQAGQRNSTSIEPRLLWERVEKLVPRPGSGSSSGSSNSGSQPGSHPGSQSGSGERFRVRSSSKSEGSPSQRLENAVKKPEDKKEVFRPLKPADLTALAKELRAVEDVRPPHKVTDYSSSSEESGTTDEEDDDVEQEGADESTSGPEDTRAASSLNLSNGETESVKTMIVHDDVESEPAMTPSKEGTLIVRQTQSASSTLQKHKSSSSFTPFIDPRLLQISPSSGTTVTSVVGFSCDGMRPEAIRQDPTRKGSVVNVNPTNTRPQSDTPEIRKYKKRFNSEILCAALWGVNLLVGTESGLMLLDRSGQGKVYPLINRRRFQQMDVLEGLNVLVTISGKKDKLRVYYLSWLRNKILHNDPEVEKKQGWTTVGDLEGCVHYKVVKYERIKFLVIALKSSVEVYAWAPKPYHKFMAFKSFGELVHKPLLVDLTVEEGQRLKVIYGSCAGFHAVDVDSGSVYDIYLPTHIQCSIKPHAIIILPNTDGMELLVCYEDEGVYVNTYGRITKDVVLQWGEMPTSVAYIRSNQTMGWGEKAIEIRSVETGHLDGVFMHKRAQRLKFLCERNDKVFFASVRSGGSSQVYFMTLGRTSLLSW
The target of assay [16] is Macrophage colony-stimulating factor 1 receptor (Homo sapiens, UniProt P07333). Type of assay: functional.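 Also: value comes from the Navigating the Kinome screening panel, CSF1R member.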

Activity calls are given as the source filed them.

Chain of Aurora kinase B (Q96GD4 whole entry): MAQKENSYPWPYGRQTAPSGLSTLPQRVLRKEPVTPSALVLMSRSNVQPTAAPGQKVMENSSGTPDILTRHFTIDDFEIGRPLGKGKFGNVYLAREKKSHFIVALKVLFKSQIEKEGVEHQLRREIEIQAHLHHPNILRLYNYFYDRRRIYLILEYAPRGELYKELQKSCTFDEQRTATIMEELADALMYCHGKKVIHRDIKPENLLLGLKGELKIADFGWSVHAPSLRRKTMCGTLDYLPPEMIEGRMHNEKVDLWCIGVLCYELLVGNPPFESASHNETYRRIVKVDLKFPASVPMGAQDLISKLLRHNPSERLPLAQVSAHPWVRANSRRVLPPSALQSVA

Take `CCOC(=O)c1ccc(NC2=CC(=O)C(=O)c3ccccc32)cc1`: the EC50 in the assay on Streptococcus is 9240 nM (active). Also, in assay [1], the 50% cytotoxic concentration (CC50) is 15200 nM (active).
Take `CCCCCCCCCCCCCCCC[N+](C)(C)C`: the 50% effective concentration (EC50) in the assay on Streptococcus is 7770 nM (active).
Consider `NC1CCC(Nc2nc(Cl)cc(-c3c[nH]c4ncccc34)n2)CC1` (centres undefined), for which the Ki was 39.8 nM (active) in assay [2]; 631 nM (active) in [3]; 2000 nM (active) in assay [4]; 2510 nM (active) in assay [5]; 1260 nM (active) in [6]; > 1580 nM (inactive) on Aurora kinase A. Moreover, the Ki is > 6310 nM (inactive) in [7]; 63.1 nM (active) in assay [8]; 2000 nM (active) on Activated CDC42 kinase 1; 6.31 nM (active) in assay [9]; 1580 nM (active) in assay [10]; 251 nM (active) at Aurora kinase B. Also, the Ki was > 6310 nM (inactive) in assay [11]; 50.1 nM (active) in assay [12]; 794 nM (active) in assay [13]; 1 nM (active) in [14]; 20 nM (active) in assay [15]; 126 nM (active) in assay [16]. The pKi in assay [2] was determined as 7.4; in assay [3], 6.2; in [4] it was 5.7; in [6], 5.9; in assay [8] it was 7.2; at Activated CDC42 kinase 1 it was 5.7. For the same compound, the negative logarithm of the Ki (pKi) is 8.2 in assay [9]; 5.8 in assay [10]; 6.6 at Aurora kinase B; 7.3 in assay [12]; 6.1 in [13]; 9 in [14]. Besides, the negative logarithm of the Ki (pKi) in [15] came out at 7.7; in assay [16], 6.9.
`O=C(O)C1CN(Cc2ccc(OCc3ccccc3)cc2Cl)C1`: the Ki in assay [2] is > 3160 nM (inactive); in assay [3], > 6310 nM (inactive); in assay [4] it was > 3160 nM (inactive); in [5], > 3160 nM (inactive); in assay [6], > 5010 nM (inactive); on Aurora kinase A, > 1580 nM (inactive). Further, the Ki in assay [7] was > 6310 nM (inactive); in assay [8], > 2510 nM (inactive); at Activated CDC42 kinase 1 it was > 3980 nM (inactive); in assay [9], > 3160 nM (inactive); in [10], > 2510 nM (inactive); on Aurora kinase B, > 3980 nM (inactive). Further, the Ki is > 6310 nM (inactive) in [11]; > 3980 nM (inactive) in assay [12]; > 3980 nM (inactive) in [13]; > 2510 nM (inactive) in assay [14]; > 5010 nM (inactive) in [15]; > 2510 nM (inactive) in assay [16].
With `Cc1ccccc1-c1cc2c(nn1)-c1ccccc1C2=O`, in assay [1], the half-maximal cytotoxic concentration (CC50) is 36200 nM (active).

Values taken from ChEMBL document CHEMBL1201862, “PubChem BioAssay data set” (2004).
